Data on 4 compounds can be found in patent publication US20190021321A1, “BROAD SPECTRUM ANTIMICROBIAL & ANTICOAGULANT COMPOSITION” (priority 2016, published 2019).

Like-named read-outs stand apart in the source and are kept apart here.

The subject of series [1] is S. aureus. The experiment in a line: Rate kill assay, plate count (Part A synergy; Part B pH and D-Mannitol effect). The series is classed as cell-based. The following applies: D-Mannitol 0.73 wt % alone, both at pH 7.5 & 11.
Description: The second set of experiments conducted, were “Rate Kill” assay. […] In these assays the formulations are first exposed to organisms for a desired time (for the current formulations readings were taken at 1, 3 and 24 hours). Then a sample of the organisms and formulation mixture is serially diluted and plated to assess the log reduction. The organisms are allowed to grow and are checked for growth/log reduction after 24 hrs. The log reduction values obtained for individual components are compared with the combinations.
Each solution was then combined with S. aureus and the log reduction of the S. aureus was measured at 1, 3 and 24 hours.
The subject of series [2] is P. aeruginosa. Described as above. It counts as cell-based.
Description: In these assays the formulations are first exposed to organisms for a desired time (for the current formulations readings were taken at 1, 3 and 24 hours). Then a sample of the organisms and formulation mixture is serially diluted and plated to assess the log reduction. The organisms are allowed to grow and are checked for growth/log reduction after 24 hrs. The log reduction values obtained for individual components are compared with the combinations.
Each solution was then combined with P. aeruginosa and the log reduction of the P. aeruginosa was measured at 1, 3 and 24 hours.
Series [3] concerns C. albicans. The series is described as above. The series is classed as cell-based. Particulars: D-Mannitol 0.73 wt % alone, both at pH 7.5 & 11.
Description: The second set of experiments conducted, were “Rate Kill” assay. A rate kill assay can confirm whether combinations are synergistic or not. In these assays the formulations are first exposed to organisms for a desired time (for the current formulations readings were taken at 1, 3 and 24 hours). Then a sample of the organisms and formulation mixture is serially diluted and plated to assess the log reduction. The organisms are allowed to grow and are checked for growth/log reduction after 24 hrs. The log reduction values obtained for individual components are compared with the combinations.
The following solutions were prepared:
Each solution was then combined with C. albicans and the log reduction of the C. albicans was measured at 1, 3 and 24 hours.
In series [4] the test system is S. aureus. In words: Minimum inhibitory concentration (MIC) via macro-dilution method. The following applies: for MIC: S. aureus; for GROWTH: 24 hours, replicate columns.
Series [5] relates to C. albicans. In words: Synergy evaluation, checkerboard titration, macro-dilution. The series is classed as cell-based. Here is the method:
(§1) The first set of experiments conducted, were screening experiments using checkerboard titration strategy to assess if the combinations fall within a range having an Fractional Inhibitory Concentration (FIC) index value of ≤1. The method used was a NCCLS macro-dilution procedure.
(§2) The Checkerboard Titration method was used to assess the interactions between TEDTA and Ethanol. […] During this experiment, TEDTA and Ethanol were tested in the combinations to assess if the combinations have a Fractional Inhibitory Concentration (FIC) index of ≤1. The following concentrations were tested:
(§3) Fractional Inhibitory Concentration (FIC) is defined as the MIC of the compound in combination divided by the MIC of the compound alone. If the FIC index is ≤0.5, the combination is interpreted to be synergistic; <1 but >0.5—as partially synergistic; =1 as additive; >1 but <4 as indifferent; and ≥4 as antagonistic. In order to calculate the FIC index the following calculations are performed for compounds A and B:
(§4) FIC-A=(MIC of A in combination)/(MIC of A alone)
(§5) FIC-B=(MIC of B in combination)/(MIC of B alone)
(§6) FIC-combination=FIC-A+FIC-B
(§7) The following concentrations were tested:
The MIC-TEDTA (MIC of TEDTA in combination with Ethanol), a minimum concentration of TEDTA, while in combination with Ethanol, that inhibited the growth of C. albicans in MHB was found. In order to determine the MIC-Ethanol (MIC of Ethanol in combination with TEDTA), a minimum concentration of Ethanol, while in combination with TEDTA, that inhibited the growth of C. albicans in MHB was found.

Series [6] has as its system P. aeruginosa. Described as above. The series is classed as cell-based. On the procedure:
as §1, §2, §3, §4, §5, §6, §7
The MIC-TEDTA (MIC of TEDTA in combination with Ethanol), a minimum concentration of TEDTA, while in combination with Ethanol, that inhibited the growth of P. aeruginosa in MHB was found. In order to determine the MIC-Ethanol (MIC of Ethanol in combination with TEDTA), a minimum concentration of Ethanol, while in combination with TEDTA, that inhibited the growth of P. aeruginosa in MHB was found.

The subject of series [7] is S. aureus. The description is as above. The series is classed as cell-based. On the procedure: as §1, §2, §3, §4, §5, §6
In order to determine the MIC-Ethanol (MIC of Ethanol in combination with TEDTA), a minimum concentration of Ethanol, while in combination with TEDTA, which inhibited the growth of S. aureus in MHB was found.

Series [8] concerns P. aeruginosa. The following applies: for MIC: P. aeruginosa; for GROWTH: 24 hours, replicate columns. On the procedure: (§8) Experiments were conducted to assess the minimum inhibitory concentration (MIC) both for sodium salt of EDTA that comprises tetra-sodium EDTA and Ethanol. […] Clear solution indicates no growth.
(§9) The following solutions were prepared to evaluate the MIC values of sodium salt of EDTA that comprises tetra-sodium EDTA (TEDTA) and Ethanol.

Series [9] deals with C. albicans. Particulars: for MIC: C. albicans; for GROWTH: 24 hours, replicate columns. On the procedure: as §8, §9
The conditions of series [10]: up to 3000 mg infused over 3 hours, daily, treatment of hyper-calcemia in humans; cited from earlier work.
Where [11] appears, read: TEDTA alone, listed as Sodium Salt(s) of EDTA.
The mark [12] stands for this setting: TEDTA 0.06 WT % individual (0.25 MIC).
Setting [13] is: TEDTA 0.12 WT % individual (0.50 MIC).
[14] abbreviates: TEDTA 0.24 WT % individual (1.00 MIC).
[15] abbreviates: S. aureus in Mueller Hinton Broth.

Take `OC[C@@H](O)[C@@H](O)[C@H](O)[C@H](O)CO` [D-Mannitol]: the log reduction in the series with S. aureus [1] is recorded as over 4 log; with P. aeruginosa [2] (P. aeruginosa, D-Mannitol 0.73 wt % alone, both at pH 7.5 & 11), over 5 log; with C. albicans [3], over 5 log. Moreover, the “LOG REDUCTION AGAINST P. aeruginosa” value in the series on P. aeruginosa [2] (footnote summary, D-mannitol alone, 0.73 wt %) is given as “D-MANNITOL EXHIBITS > 5 LOG REDUCTION AGAINST P. aeruginosa”.
`O=C([O-])CN(CCN(CC(=O)[O-])CC(=O)[O-])CC(=O)[O-].[Na+].[Na+].[Na+].[Na+]` [TEDTA, tetra-sodium EDTA]: the MIC in the series with S. aureus [4] (setting [11]), in the series on P. aeruginosa [8] (setting [11]) and with C. albicans [9] (setting [11]) was 0.24 WT % in each case. Besides, the GROWTH entry was “+VE” in the series on S. aureus [4] (TEDTA 0.015 WT %); “+VE” with S. aureus [4] (TEDTA 0.030 WT %); “+VE” in the series on S. aureus [4] (TEDTA 0.060 WT %); “+VE” in the series with S. aureus [4] (TEDTA 0.120 WT %); “−VE” in the series with S. aureus [4] (TEDTA 0.240 WT %); “−VE” with C. albicans [5] (setting [12]). Further, the GROWTH result in the series with C. albicans [5] (setting [13]) was “−VE”; with C. albicans [5] (setting [14]), “−VE”; with P. aeruginosa [6] (TEDTA 0.06 WT % individual (0.24 MIC)), “+VE”; with P. aeruginosa [6] (TEDTA 0.12 WT % individual (0.48 MIC)) it was “+VE”; with P. aeruginosa [6] (TEDTA 0.24 WT % individual (0.96 MIC)), “−VE”; in the series with S. aureus [7] (setting [12]) it was “+VE”. In addition, the GROWTH entry is on record as “+VE” in the series on S. aureus [7] (setting [13]); “−VE” in the series on S. aureus [7] (setting [14]); “+VE” in the series on P. aeruginosa [8] (TEDTA 0.125 WT %); “−VE” in the series on P. aeruginosa [8] (TEDTA 0.250 WT %); “−VE” with P. aeruginosa [8] (TEDTA 0.500 WT %); “−VE” in the series on P. aeruginosa [8] (TEDTA 1.000 WT %). Besides, the GROWTH result is on record as “−VE” in the series on P. aeruginosa [8] (TEDTA 1.500 WT %); “+VE” in the series on C. albicans [9] (TEDTA 0.015 WT %); “+VE” with C. albicans [9] (TEDTA 0.030 WT %); “+VE” with C. albicans [9] (TEDTA 0.060 WT %); “+VE” in the series on C. albicans [9] (TEDTA 0.120 WT %); “−VE” in the series on C. albicans [9] (TEDTA 0.240 WT %). Also, the “MIC-TEDTA (MIC of TEDTA in combination with Ethanol)” value is listed as 0.06 % (w/v) with C. albicans [5] (C. albicans in MHB), 0.12 % (w/v) in the series on P. aeruginosa [6] (P. aeruginosa in MHB) and 0.06 % (w/v) in the series on S. aureus [7] (setting [15]). Besides, the FIC-TEDTA with C. albicans [5] (C. albicans, 0.06/0.24) is 0.25; in the series on P. aeruginosa [6] (P. aeruginosa, 0.12/0.25) it was 0.48; in the series with S. aureus [7] (S. aureus, 0.06/0.24), 0.25.
As to `O=C([O-])CN(CCN(CC(=O)[O-])CC(=O)O)CC(=O)O.[Na+].[Na+]` [EDTA disodium], the “tolerability of infused dose” value in series [10] is recorded as “well tolerated”.
In the case of `CCO` [ETHANOL, Ethanol], the GROWTH entry is reported as “+VE” in the series with S. aureus [4] (ETHANOL 3.13 VOL %); “+VE” in the series on S. aureus [4] (ETHANOL 6.25 VOL %); “+VE” in the series on S. aureus [4] (ETHANOL 12.50 VOL %); “−VE” in the series on S. aureus [4] (ETHANOL 25.00 VOL %); “−VE” in the series on S. aureus [4] (ETHANOL 50.00 VOL %); “+VE” with C. albicans [5] (ETHANOL 0.781 VOL % individual (0.25 MIC)). In addition, the GROWTH entry is given as “+VE” in the series on C. albicans [5] (ETHANOL 1.563 VOL % individual (0.50 MIC)); “−VE” in the series on C. albicans [5] (ETHANOL 3.125 VOL % individual (1.00 MIC)); “+VE” in the series on P. aeruginosa [6] (ETHANOL 1.563 VOL % individual (0.25 MIC)); “+VE” in the series on P. aeruginosa [6] (ETHANOL 3.125 VOL % individual (0.50 MIC)); “−VE” in the series with P. aeruginosa [6] (ETHANOL 6.250 VOL % individual (1.00 MIC)); “+VE” in the series on S. aureus [7] (ETHANOL 6.250 VOL % individual (0.25 MIC)). Further, the GROWTH result in the series with S. aureus [7] (ETHANOL 12.500 VOL % individual (0.50 MIC)) is given as “+VE”; in the series with S. aureus [7] (ETHANOL 25.000 VOL % individual (1.00 MIC)), “−VE”; in the series with P. aeruginosa [8] (ETHANOL 3.13 VOL %), “+VE”; with P. aeruginosa [8] (ETHANOL 6.25 VOL %), “−VE”; with P. aeruginosa [8] (ETHANOL 12.50 VOL %) it was “−VE”; in the series with P. aeruginosa [8] (ETHANOL 25.00 VOL %), “−VE”. Besides, the GROWTH entry in the series with P. aeruginosa [8] (ETHANOL 50.00 VOL %), in the series with C. albicans [9] (ETHANOL 3.125 VOL %), in the series with C. albicans [9] (ETHANOL 6.25 VOL %), in the series with C. albicans [9] (ETHANOL 12.50 VOL %), in the series on C. albicans [9] (ETHANOL 25.00 VOL %) and with C. albicans [9] (ETHANOL 50.00 VOL %) was “−VE” in each case. Besides, the MIC was determined as 25 VOL % with S. aureus [4] (ethanol alone), 6.25 VOL % with P. aeruginosa [8] (ethanol alone) and 3.125 VOL % in the series on C. albicans [9] (ethanol alone). Also, the “MIC-Ethanol (MIC of Ethanol in combination with TEDTA)” value was 0.781 % (v/v) in the series on C. albicans [5] (C. albicans in MHB) and 3.125 % (v/v) in the series with P. aeruginosa [6] (P. aeruginosa in MHB). Besides, the FIC-Ethanol in the series on C. albicans [5] (C. albicans, 0.781/3.125) was 0.25; in the series on P. aeruginosa [6] (P. aeruginosa, 3.125/6.25) it was 0.5; with S. aureus [7] (S. aureus, 6.25/25) it was 0.25. Moreover, the “MIC-ETH (MIC of Ethanol in combination with TEDTA)” value with S. aureus [7] (setting [15]) is given as 6.25 % (w/v).
